In test [1] the target is T1, P. berghei apicoplast DNA polymerase (Pb-apPOL) (Plasmodium berghei, UniProt A0A509ALK1).
T1 sequence (A0A509ALK1 1182-1809): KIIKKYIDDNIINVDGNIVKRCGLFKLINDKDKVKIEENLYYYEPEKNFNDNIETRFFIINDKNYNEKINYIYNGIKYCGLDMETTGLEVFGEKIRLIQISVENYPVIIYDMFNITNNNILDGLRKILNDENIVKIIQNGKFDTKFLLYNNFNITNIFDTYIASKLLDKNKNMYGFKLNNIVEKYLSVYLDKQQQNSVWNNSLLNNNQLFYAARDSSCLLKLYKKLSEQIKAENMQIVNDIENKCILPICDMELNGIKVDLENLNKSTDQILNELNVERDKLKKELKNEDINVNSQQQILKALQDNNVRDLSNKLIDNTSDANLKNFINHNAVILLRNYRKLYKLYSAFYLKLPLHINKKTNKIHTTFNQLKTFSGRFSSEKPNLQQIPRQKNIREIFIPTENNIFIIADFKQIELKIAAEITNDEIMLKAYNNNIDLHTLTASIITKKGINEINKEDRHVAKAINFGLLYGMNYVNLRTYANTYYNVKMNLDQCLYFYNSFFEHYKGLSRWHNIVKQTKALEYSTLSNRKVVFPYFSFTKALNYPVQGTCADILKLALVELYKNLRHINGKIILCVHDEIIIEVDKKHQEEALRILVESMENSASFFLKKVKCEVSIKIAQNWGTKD
The experiment in a line: In vitro DNA polymerase inhibition assay, Pb-apPOL. Type of test: biochemical. The note with it: Table 2. As for the experimental part: Codon-optimized, exonuclease-deficient Pf-apPOL was overexpressed in E. coli BL21 (DE3) and purified as described. The protein was dialysed against two, 1-liter changes of 20 mM Tris-HCl (pH 8.0), 400 mM NaCl, and 20% glycerol. Plasmodium bergei and Babesia bovis apPOLs (Pb-apPOL and Bb-apPOL, respectively) were codon-optimized, expressed, and purified as for Pf-apPOL[15]. Bacteriophage T4 DNA polymerase was purified as described. The DNA oligonucleotides used to make the high-throughput substrate were obtained from Integrated DNA Technologies. Deoxynucleotides were purchased from Strategene. All other materials came from Fisher Scientific.
The HT assay employs a molecular beacon, a stem-loop DNA template with a Cy3 dye and the Black Hole Quencher on the 3′ and 5′ ends of the DNA, respectively. Pf-apPOL concentration is based on a calculated absorptivity of ε280 = 56750 M^−1 cm^−1. Reactions were carried out at 25 °C, using Corning 3575 […] (well-volume, 20 µL). Assays testing for compound inhibition composed of reaction buffer (pH 7.9 in 50 mM potassium acetate, 20 mM Tris-acetate and 10 mM magnesium acetate), Pf-apPOL (20 nM), DNA substrate (20 nM), dNTPs (6 µM), and compound (10 µM in DMSO). The DNA and nucleotide substrates (dNTPs) were at concentrations of 20 nM and 6 µM, respectively, in the assay. Pf-apPOL was incubated in the reaction buffer with dNTPs and the compound of interest (10 µM, in the assay) at 25 °C for 10 min. The DNA substrate was then added and the reaction was allowed to proceed for 90 min at 25 °C.
In the above, Min is the average of fluorescence emission of the negative controls (substrate only), Max the average fluorescence emission from the positive controls (enzyme + substrate), and Test the emission from the assays in the presence of compounds (enzyme + compound + substrates). Dose-response confirmation assays were performed under similar conditions as the primary screen, but monitoring fluorescence at 10, 90, and 180 min. Tested concentrations of compounds were 2.5, 10, 20, 40, and 80 µM. The IC50 of each compound was determined using Equation (2): (2) […] Vmax/(1+ (I/IC50)^n)
We tested the ability of the 102 compounds to kill P. falciparum parasites cultured in human red blood cells. Due to the number of compounds, we used a single inhibitor concentration of 20 µM and performed experiments in triplicate. These single-dose assays identified 9 compounds that inhibited parasite growth by more than 50%. These compounds were then tested in a dose-response format against chloroquine resistant P. falciparum parasites (Dd2) and the resulting data were fit to a sigmoidal growth inhibition curve to determine EC50 values (Figure 5, Table 2). […] Inhibition of Pb-apPOL is a desired feature because it is likely that future in vivo studies will be performed in the mouse model for Malaria. […] The in vitro polymerase assays identified 5 compounds that were potent inhibitors of all three apicoplast polymerases and a single compound that inhibited Pf-apPOL and Bb-apPOL but not Pb-apPOL (Table 2). Finally, to determine if the compounds were killing the parasites solely via apicoplast disruption, the dose-response curves were also performed with 1 mM isopentylpyrophosphate (IPP) in the growth media (Table 2). […] At this time, it is unclear what the non-apicoplast target(s) may be. One intriguing possibility is that these compounds may be targeting both the apicoplast and the mitochondrial DNA polymerases. […]

The subject of test [2] is chloroquine resistant P. falciparum parasites (strain Dd2). The experiment in a line: Parasite growth inhibition assay in human red blood cells (flow cytometry, acridine orange). It counts as cell-based. The note with it: Plasmodium falciparum, Erythrocyte. The protocol:
The chloroquine resistant P. falciparum parasites (strain Dd2) were cultured in de-identified, IRB-exempt human red blood cells (RBCs) obtained from the American Red Cross and parasite cultures were maintained as described. Parasitaemia (percentage of total RBCs infected) was measured by flow cytometry on an Attune NxT (ThermoFisher) by nucleic-acid staining of cultured RBCs with phosphate-buffered saline (PBS) containing 0.8 µg ml^−1 acridine orange. We began by determining percent growth inhibition at single compound dose (20 µM) for the 102 non-toxic compounds. […] The experiments were initiated with a starting parasitaemia of ∼1% and parasitaemia was measured 72 and 96 h post compound addition. Growth was normalised to parasite cultures with carrier only (DMSO).
We tested the ability of the 102 compounds to kill P. falciparum parasites cultured in human red blood cells. Due to the number of compounds, we used a single inhibitor concentration of 20 µM and performed experiments in triplicate. […] These compounds were then tested in a dose-response format against chloroquine resistant P. falciparum parasites (Dd2) and the resulting data were fit to a sigmoidal growth inhibition curve to determine EC50 values (Figure 5, Table 2). […] Finally, to determine if the compounds were killing the parasites solely via apicoplast disruption, the dose-response curves were also performed with 1 mM isopentylpyrophosphate (IPP) in the growth media (Table 2). […] Very little is known regarding mitochondrial DNA replication in P. falciparum; however, signal sequence identification algorithms have predicted that the other bacterial A-family DNA polymerase residing in P. falciparum is targeted to the mitochondria (PF3D7_0625300)[29]. […] We are currently in the process of cloning and expressing this putative mitochondrial DNA polymerase to determine the effect of these compounds on its activity.

[3] abbreviates: Dd2 parasites in human RBCs, dose-response, no IPP, read-out: EC50.
[4] abbreviates: Dd2 parasites, 1 mM isopentylpyrophosphate (IPP) in the growth media, read-out: EC50 + IPP.

Read-outs that look alike come from different tables or passages of the source.

The IC50 is the concentration at which inhibition is half-maximal. The term EC50 denotes the concentration giving half of the maximal effect.

Compound `O=C(O)c1ccc(-c2nc3cc(-c4ccc5nc(-c6ccc(C(=O)O)cc6)[nH]c5c4)ccc3[nH]2)cc1` [Molecule 1] registered a half-inhibitory concentration (IC50) in test [1] of 7.1 ± 0.6 µM. The results for the concentration giving a half-maximal response (EC50) in test [2] (setting [3]) and in test [2] (setting [4]) were 8.6 ± 0.4 µM and 9.3 ± 0.5 µM, respectively.

Compound `COc1ccc(CNC(=O)Cn2nc3c(c2NC(=O)Cc2cccs2)CSC3)cc1` [Molecule 55] had an IC50 in test [1] of 51.9 ± 3.5 µM. Besides, the EC50 was 3.5 ± 0.3 µM in test [2] (setting [3]) and 4.3 ± 0.2 µM in test [2] (setting [4]).

Consider `CCOc1nc2cccc(C(=O)OC(C)OC(=O)OC3CCCCC3)c2n1Cc1ccc(-c2ccccc2-c2nnn[nH]2)cc1` (stereo not drawn) [Molecule 94], for which the IC50 in test [1] was determined as 13.9 ± 1.6 µM. Besides, the figures for the 50% effective concentration (EC50) in test [2] (setting [3]) and in test [2] (setting [4]) were 4.6 ± 0.2 µM and 3.7 ± 0.5 µM, respectively.

`OC(C#Cc1ccccc1)c1ccco1` (stereo not drawn) [Molecule 95] displayed an IC50 in test [1] of 8.6 ± 0.7 µM. The figures for the half-maximal effective concentration (EC50) in test [2] (setting [3]) and in test [2] (setting [4]) were 7.5 ± 0.5 µM and 7.4 ± 0.4 µM, respectively.

Source of the values: paper PMC9090415, “Discovery of small molecule inhibitors of Plasmodium falciparum apicoplast DNA polymerase” (Journal of Enzyme Inhibition and Medicinal Chemistry, 2022).
